Measured values from patent US11802111B2, “Cyclobutyl amide monoacylglycerol lipase modulators” (Janssen Pharmaceutica NV, priority 2020, dated 2023).

target: human MGL from HeLa cells (Homo sapiens (Human), UniProt Q99685); assay: MGL in vitro activity assay ([glycerol-1,3-3H]-oleoyl glycerol hydrolysis, activated carbon filtration); format: biochemical; conditions: 300 nM [Glycerol-1,3-3H]-oleoyl glycerol, one hour
Experimental: The assay used to measure the in vitro activity of MGL is adapted from the assay used for another serine hydrolase (FAAH) described in Wilson et al., 2003 (A high-throughput-compatible assay for determining the activity of fatty acid amide hydrolase. Wilson S J, Lovenberg T W, Barbier A J. Anal Biochem. 2003 Jul. 15; 318(2):270-5). The assay consists of combining endogenously expressed MGL from HeLa cells with test compounds, adding [glycerol-1,3-^3H]-oleyl glycerol, incubating for one hour, and then measuring the amount of cleaved [1,3-^3H]-glycerol that passes through an activated carbon filter. The amount of cleaved, tritiated glycerol passing through the carbon filter is proportional to the activity of the MGL enzyme in a particular well/test condition.
Standard conditions for this assay combine 300 nM [Glycerol-1,3-^3H]-oleoyl glycerol with human MGL from HeLa cells and test compounds for one hour, after which the reaction is filtered through activated carbon and tritium is measured in the flow through. The test compound concentration in screening mode is 10 μM, while the highest compound concentration in IC50 assays is determined empirically. MGL is the predominant hydrolase in HeLa cells/cell homogenates.

Sequence of human MGL from HeLa cells (Q99685 whole entry): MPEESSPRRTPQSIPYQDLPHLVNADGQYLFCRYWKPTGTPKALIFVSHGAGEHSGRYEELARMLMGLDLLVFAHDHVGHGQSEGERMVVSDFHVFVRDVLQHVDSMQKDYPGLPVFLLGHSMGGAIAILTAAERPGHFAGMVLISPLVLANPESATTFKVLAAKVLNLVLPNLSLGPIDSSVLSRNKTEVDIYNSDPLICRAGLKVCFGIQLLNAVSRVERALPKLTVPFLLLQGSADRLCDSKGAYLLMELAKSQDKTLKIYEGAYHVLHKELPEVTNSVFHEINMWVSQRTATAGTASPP

Row | Compound | IC50 [nM]
1 | C[C@]1(O)C[C@@H](C(=O)N2CC3(CCC(c4ccc(F)c(C5CC5)c4)C3)C2)C1 (mixture of isomers) [Example 108, (rac)-(6-(3-Cyclopropyl-4-fluorophenyl)-2-azaspiro[3.4]octan-2-yl)((1s,3s)-3-hydroxy-3-methylcyclobutyl)methanone] | 14
2 | Cn1ncc(C2CCC3(C2)CN(C(=O)[C@H]2C[C@@](C)(O)C2)C3)c1C(F)(F)F (mixture of isomers) [Example 109, (rac)-((1s,3s)-3-Hydroxy-3-methylcyclobutyl)(6-(1-methyl-5-(trifluoromethyl)-1H-pyrazol-4-yl)-2-azaspiro[3.4]octan-2-yl)methanone] | 899
3 | C[C@]1(O)C[C@@H](C(=O)N2CC3(CCC(c4cccc(C(F)(F)F)n4)C3)C2)C1 (mixture of isomers) [Example 110, (rac)-((1s,3s)-3-Hydroxy-3-methylcyclobutyl)(6-(6-(trifluoromethyl)pyridin-2-yl)-2-azaspiro[3.4]octan-2-yl)methanone] | 435
4 | Cn1cnc2cc(C3CCC4(C3)CN(C(=O)[C@H]3C[C@@](C)(O)C3)C4)ccc21 (mixture of isomers) [Example 111, (rac)-((1s,3s)-3-Hydroxy-3-methylcyclobutyl)(6-(1-methyl-1H-benzo[d]imidazol-5-yl)-2-azaspiro[3.4]octan-2-yl)methanone] | 949
5 | Cn1c(C2CCC3(C2)CN(C(=O)[C@H]2C[C@@](C)(O)C2)C3)nc2ccccc21 (mixture of isomers) [Example 112, (rac)-((1s,3s)-3-Hydroxy-3-methylcyclobutyl)(6-(1-methyl-1H-benzo[d]imidazol-2-yl)-2-azaspiro[3.4]octan-2-yl)methanone] | 5530
6 | CC(C)c1cc(F)cc(C2CCC3(C2)CN(C(=O)[C@H]2C[C@@](C)(O)C2)C3)c1 (mixture of isomers) [Example 125, (rac)-(6-(3-Fluoro-5-isopropylphenyl)-2-azaspiro[3.4]octan-2-yl)((1s,3s)-3-hydroxy-3-methylcyclobutyl)methanone] | 8.3
7 | CC[C@]1(O)C[C@@H](C(=O)N2CC3(CCC(c4cccc(C(C)(C)C)c4)C3)C2)C1 (mixture of isomers) [Example 126, (rac)-(6-(3-(tert-Butyl)phenyl)-2-azaspiro[3.4]octan-2-yl)((1r,3s)-3-ethyl-3-hydroxycyclobutyl)methanone] | 7.5
8 | C[C@]1(O)C[C@@H](C(=O)N2CCC3(CCC(c4ccc(C(F)(F)F)cc4)C3)CC2)C1 (mixture of isomers) [Example 152, (rac)-((1s,3s)-3-Hydroxy-3-methylcyclobutyl)(2-(4-(trifluoromethyl)phenyl)-8-azaspiro[4.5]decan-8-yl)methanone] | 3.3
9 | Cc1ccc(CC2CCC3(C2)CN(C(=O)[C@H]2C[C@@](C)(O)C2)C3)cc1 (mixture of isomers) [Example 169, (rac)-((1s,3s)-3-Hydroxy-3-methylcyclobutyl)(6-(4-methylbenzyl)-2-azaspiro[3.4]octan-2-yl)methanone] | 36
10 | CC(C)c1ccc(CC2CCC3(C2)CN(C(=O)[C@H]2C[C@@](C)(O)C2)C3)cc1 (mixture of isomers) [Example 170, (rac)-((1s,3s)-3-Hydroxy-3-methylcyclobutyl)(6-(4-isopropylbenzyl)-2-azaspiro[3.4]octan-2-yl)methanone] | 10
11 | C[C@]1(O)C[C@@H](C(=O)N2CC3(CCC(Cc4ccc(C(F)(F)F)cc4)C3)C2)C1 (mixture of isomers) [Example 171, (rac)-((1s,3s)-3-Hydroxy-3-methylcyclobutyl)(6-(4-(trifluoromethyl)benzyl)-2-azaspiro[3.4]octan-2-yl)methanone] | 6.8
12 | Cc1cccc(CC2CCC3(C2)CN(C(=O)[C@H]2C[C@@](C)(O)C2)C3)c1 (mixture of isomers) [Example 174, (rac)-((1s,3s)-3-Hydroxy-3-methylcyclobutyl)(6-(3-methylbenzyl)-2-azaspiro[3.4]octan-2-yl)methanone] | 23
13 | Cc1ccccc1CC1CCC2(C1)CN(C(=O)[C@H]1C[C@@](C)(O)C1)C2 (mixture of isomers) [Example 175, (rac)-((1s,3s)-3-Hydroxy-3-methylcyclobutyl)(6-(2-methylbenzyl)-2-azaspiro[3.4]octan-2-yl)methanone] | 43
14 | C[C@]1(O)C[C@@H](C(=O)N2CC3(CCC(Cc4cccc(C(F)(F)F)c4)C3)C2)C1 (mixture of isomers) [Example 176, (rac)-((1s,3s)-3-Hydroxy-3-methylcyclobutyl)(6-(3-(trifluoromethyl)benzyl)-2-azaspiro[3.4]octan-2-yl)methanone] | 11
15 | C[C@]1(O)C[C@@H](C(=O)N2CC3(CC[C@@H](Cc4ccc(OC(F)(F)F)cc4)C3)C2)C1 (racemic) [Example 179, (rac)-((1s,3s)-3-Hydroxy-3-methylcyclobutyl)(6-(4-(trifluoromethoxy)benzyl)-2-azaspiro[3.4]octan-2-yl)methanone] | 5.7
16 | C[C@]1(O)C[C@@H](C(=O)N2CC3(CC[C@@H](Cc4cccc(OC(F)(F)F)c4)C3)C2)C1 (racemic) [Example 180, (rac)-((1s,3s)-3-Hydroxy-3-methylcyclobutyl)(6-(3-(trifluoromethoxy)benzyl)-2-azaspiro[3.4]octan-2-yl)methanone] | 8.3
17 | CC(C)c1cccc(C[C@@H]2CCC3(C2)CN(C(=O)[C@H]2C[C@@](C)(O)C2)C3)c1 (racemic) [Example 181, (rac)-((1s,3s)-3-Hydroxy-3-methylcyclobutyl)(6-(3-isopropylbenzyl)-2-azaspiro[3.4]octan-2-yl)methanone] | 4.6
18 | C[C@]1(O)C[C@@H](C(=O)N2CC3(CCC(Cc4ccc(C(F)F)cc4)C3)C2)C1 (mixture of isomers) [Example 182, (rac)-(6-(4-(Difluoromethyl)benzyl)-2-azaspiro[3.4]octan-2-yl)((1s,3s)-3-hydroxy-3-methylcyclobutyl)methanone] | 34
19 | C[C@]1(O)C[C@@H](C(=O)N2CC3(CCC(Cc4ccc(OC(F)F)cc4)C3)C2)C1 (mixture of isomers) [Example 183, (rac)-(6-(4-(Difluoromethoxy)benzyl)-2-azaspiro[3.4]octan-2-yl)((1s,3s)-3-hydroxy-3-methylcyclobutyl)methanone] | 48
20 | C[C@]1(O)C[C@@H](C(=O)N2CC3(CCC(Cc4ccc(C5CC5)cc4)C3)C2)C1 (mixture of isomers) [Example 200, (rac)-(6-(4-Cyclopropylbenzyl)-2-azaspiro[3.4]octan-2-yl)((1s,3s)-3-hydroxy-3-methylcyclobutyl)methanone] | 6.9
21 | C[C@]1(O)C[C@@H](C(=O)N2CC3(CCC(Cc4cccc(C5CC5)c4)C3)C2)C1 (mixture of isomers) [Example 201, (rac)-(6-(3-Cyclopropylbenzyl)-2-azaspiro[3.4]octan-2-yl)((1s,3s)-3-hydroxy-3-methylcyclobutyl)methanone] | 9.9
22 | Cc1cc(C(F)(F)F)ccc1CC1CCC2(C1)CN(C(=O)[C@H]1C[C@@](C)(O)C1)C2 (mixture of isomers) [Example 203, (rac)-((1s,3s)-3-Hydroxy-3-methylcyclobutyl)(6-(2-methyl-4-(trifluoromethyl)benzyl)-2-azaspiro[3.4]octan-2-yl)methanone] | 7.8
23 | Cc1cc(CC2CCC3(C2)CN(C(=O)[C@H]2C[C@@](C)(O)C2)C3)ccc1C(F)(F)F (mixture of isomers) [Example 204, (rac)-((1s,3s)-3-Hydroxy-3-methylcyclobutyl)(6-(3-methyl-4-(trifluoromethyl)benzyl)-2-azaspiro[3.4]octan-2-yl)methanone] | 3.9
